Laboratory results taken from patent US5811074A, “Method of diagnosing pituitary dependent growth hormone deficiency” (University of South Florida, priority 1996, dated 1998).
Where a SMILES comes first, the peptide text is derived from it. Where no end group is shown, it is not given here. [ ]: non-standard residue; d: D form.

Experiments:
pituitary GHRH receptor = target: T1, pituitary GHRH receptor (Rattus norvegicus, UniProt Q02644); experiment: Effect of GHRH receptor antagonist on GH release in response to GHRP-6 or morphine in young rats; type: in vivo
T1 construct: tissue Charles River; host or cells: living Fischer 344 rats (pituitary, in vivo)
T1 sequence (Q02644 23-464): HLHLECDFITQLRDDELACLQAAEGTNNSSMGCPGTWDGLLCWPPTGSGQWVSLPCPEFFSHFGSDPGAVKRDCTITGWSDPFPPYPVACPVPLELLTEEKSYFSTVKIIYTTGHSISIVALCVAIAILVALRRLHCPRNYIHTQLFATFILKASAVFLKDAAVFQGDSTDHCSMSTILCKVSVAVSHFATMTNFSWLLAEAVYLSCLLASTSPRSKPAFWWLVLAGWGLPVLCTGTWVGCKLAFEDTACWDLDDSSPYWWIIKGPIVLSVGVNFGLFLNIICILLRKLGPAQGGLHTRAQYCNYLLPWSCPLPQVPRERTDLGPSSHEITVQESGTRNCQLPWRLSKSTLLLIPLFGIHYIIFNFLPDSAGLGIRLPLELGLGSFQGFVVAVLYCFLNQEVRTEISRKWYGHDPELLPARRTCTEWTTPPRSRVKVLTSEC
Method: FIGS. 3A-3B are dose response curves showing the effect of [N-Ac-Tyr^1,D-Arg^2 ]-GRF 1-29 amide, a GHRHreceptor antagonist, on GH release in response to GHRP-6 (30 μg/kg, closed symbols, FIG. 3A) or morphine (1.5 mg/kg, open symbols, FIG. 3B). The GHRH receptor antagonist was administered in doses of 0 (circle), 5 (square), 50 (triangle), or 150 (diamond) μg/kg. Values represent mean±SEM 8 rats per group.
The second possible cause of age-related decrements in GH secretion applicants considered was that deterioration in GH secretagogue signal transduction at the pituitary level contributes to the progressive insensitivity to provocative stimuli. In a test of this hypothesis, applicants examined GH secretory responses to GHRP-6 in young rats administered [N-Ac-Tyr^1, D-Arg^2 ]-GRF 1-29, an antagonist to the pituitary GHRH receptor.
However, 150 μg/kg of [N-Ac-Tyr^1, D-Arg^2 ]-GRF 1-29 amide potentiated GHRP-6 activity, presumably due to partial agonist activity of the GHRH receptor […] at the higher dose (Bercu et al., 1992a).

GH release [1] = experiment: GH release after GHRP-6 alone and in combination with GHRH in old versus young rats; type: in vivo, Fischer 344 rats; conditions: GHRP-6 alone, old vs young rats
Description: Fischer 344 rats (Charles River), both male and female, were used. Young animals are defined as sexually mature between 2 and 7 months of age. Old animals are defined as those over 16 months of age.
GHRH-efficacy has been reported to be reduced 50 to 75% in old rats (Sonntag et al., 1983); therefore, applicants tested the effect of GHRP-6 alone and in combination with GHRH on GH release in old rats. Peak plasma GH concentrations resulting from GHRP-6 administration in old rats were approximately 60% less than in young rats. […] Since target organs sometimes become hyperresponsive when tonic and/or phasic stimulation decreases, than one would expect exaggerated responses to provocative exogenous stimuli under experimental conditions. GH hypersecretion observed in naive, old rats administered a single bolus of GHRH and GHRP (Walker et al., 1991) provides support for the hypothesis that deficits in stimulated GH secretion in aged rats were due to insufficient signals or inappropriately transduced GH releasing stimuli.

GH release [2] = conditions: rats; Bercu et al., 1992a; cited from earlier work
GH release [3] = experiment: GHRP-6 activity in young rats with reduced endogenous GHRH (GHRH antiserum or α-methyl-p-tyrosine); type: in vivo
Method: FIG. 2 is a dose response curve for GHRP-6 in rats pretreated with vehicle (triangles), α-methyl-p-tyrosine (circles), or GHRH antiserum (squares). Values represent means±SEM (8 rats per dose and treatment) in plasma collected 15 minutes after administration of GHRP-6.
Young rats were passively immunized against endogenous GHRH or administered α-methyl-.rho.-tyrosine. If GHRH and the endogenous ligand of GHRP-6 are physiological co-agonists of GH secretion in the young rat, then removal of one or the other should be expressed as attenuated activity of its co-agonist when administered alone. Passive immunization which inactivates GHRH with neutralizing antibodies, or α-methyl-p-tyrosine (L form) which blocks stimulation of hypothalamic GHRH neurons were used to remove or reduce concentrations of endogenous GHRH in the young experimental animals. These treatments were intended to simulate the aged condition in which concentrations of GHRH and GHRH mRNA are low (De Gennaro Collona et al., 1989; Morimoto et al., 1988). Afterwards, GHRP-6 was administered to test and compare its efficacy with that in old rats (Walker et al., 1991).
Presumably, naturally occurring decrements in endogenous GHRH during aging contributed to the blunted response to GHRP-6 that applicants observed (Walker et al., 1991). […]

GH secretion [4] = experiment: Provocative challenge with a GH secretagogue administered alone, peak serum GH; type: in vivo
Method: The diagnostic potential of GHRX and GHRH, with GHRP and growth hormone releasing hormone respectively the preferred compounds, for determining the etiology of GH secretory deficiency is profoundly affected by the sequence in which the secretagogues are administered. When GHRH is administered alone, the GH secretory response it elicits is extremely variable and is poorly dose related (Table 1).
On the other hand, the response to GHRP administered alone is not variable (Table 2). The minimal variability of the GHRP response is presumed to result from its partial action as a somatostatin […].
The growth hormone levels in the blood of the child or adult can be measured by any well known procedures, e.g., using an immunoradiometric assay as described by Bowers et al. (1990) or any other contemporary, scientifically accepted method.

GH secretion [5] = experiment: Pediatric study: sequential GHRP then GHRH bolus, and co-administration, serum GH by radioimmunoassay; type: in vivo, children; conditions: for GH response to sequentially administered secretagogue: hypopituitary subject (atrophic, developmentally retarded pituitary gland), FIG. 4B
Method: The protocol used in the pediatric study from which data presented below were collected involved the sequential administration of exogenous GHRP and exogenous GHRH as set forth in the present invention (Table 4; FIGS. 1A-1B). Briefly, each subject began testing at approximately 0900 h, one half hour after placement of an intravenous catheter. Two blood samples for basal concentrations of serum GH were drawn, and GHRP (1 μg/kg) was administered as a bolus. Blood samples were then drawn at five minute intervals for 20 minutes during which the GH secretory response occurred, and at longer intervals for about two hours thereafter.
GHRH (1 μg/kg) was then administered as a bolus, when basal GH concentrations were again established. Blood samples were similarly collected after GHRH administration as they were following GHRP administration. GH concentrations in each serum was then determined by radioimmunoassay.
The study population was composed of children with normal GH secretory function (serving as controls and normal baseline values) and those with GH secretory dysfunction of various clinical diagnoses. The purpose of evaluating different etiologies of GH secretory dysfunction was to validate the hypothesis that complementary endogenous GH secretagogues must be present for optimal expression of GHRP or GHRH stimulatory potential.

GH secretion [6] = experiment: Repeated injections of GHRH preceded by GHRP in the same individual, peak serum GH; type: in vivo; conditions: repeated tests in same individual
Method: The timing between the sequential, independent challenges must be between two and four hours with the preferred embodiment at two hours (120 minutes after GHRX administration). Blood is drawn at regular intervals for up to two hours after the administration of each secretagogue, generally every 5 minutes for the first 20 minutes after administration and 10-15 minute intervals thereafter for the remaining two hours. From these blood samples the peak GH response is measured thereby determining if GH level changes after each administration has occurred.
Relevant to using GHRH and GHRP as diagnostic agents is the fact that GHRP eliminates the endogenous factors causing variability in the GHRH response. Administration before GHRH creates an episode of GH secretion that "resets" the sensitivity of the GH neurosecretory axis to stimulation by GHRH, so that at the time of GHRH administration, uniform baseline conditions in the subject have been achieved. This then puts the GH neurosecretory axis in a uniform state of readiness for GHRH so that a subsequent relatively stable and constant episode of GHRH-stimulated GH secretion results (Table 3). This GHRH stimulated GH secretory episode can then be compared with the stable episode of GHRP-stimulated GH secretion that preceded it as a basis for the diagnostic test of the present invention.

## [N-Ac-Tyr^1,D-Arg^2 ]-GRF 1-29 amide [[N-Ac-Tyr^1, D-Arg^2]-GRF 1-29 amide]
Pituitary GHRH receptor; 50 μg/kg antagonist, P<0.05, FIG. 3A
  GHRP-6 stimulated GH secretion as a function of time: significantly reduced
Pituitary GHRH receptor; 150 μg/kg antagonist, P<0.01, FIG. 3A
  GHRP-6 stimulated GH secretion as a function of time: significantly increased
Pituitary GHRH receptor; 150 μg/kg, GHRP-6 30 μg/kg
  Effect on GHRP-6 activity: potentiated
Pituitary GHRH receptor; 50 and 150 μg/kg antagonist, P<0.05, morphine 1.5 mg/kg, FIG. 3B
  Morphine-stimulated GH secretion: significantly reduced
Pituitary GHRH receptor; pre-administration of 5 to 50 μg/kg, GHRP-6 30 μg/kg
  Effect on GHRP activity: attenuated

## C[C@H](NC(=O)[C@@H](Cc1c[nH]c2ccccc12)NC(=O)[C@@H](N)Cc1c[nH]cn1)C(=O)N[C@@H](Cc1c[nH]c2ccccc12)C(=O)N[C@H](Cc1ccccc1)C(=O)N[C@@H](CCCCN)C(N)=O [GHRP-6, His-D-Trp-Ala-Trp-D-Phe-Lys-NH2] (H-H[dW]AW[dF]K-NH2)
GH release [1]
  Peak plasma GH concentration in old rats, less than in young rats: approximately 60%
GH release [2]
  Reduction of GHRP-6 activity by passive immunization against endogenous GHRH: approximately 90%
GH release [3]; young female rats pretreated with GHRH antiserum
  GHRP-6 activity (plasma GH 15 minutes after GHRP-6): significantly attenuated
GH release [3]; young female rats pretreated with α-methyl-p-tyrosine
  GHRP-6 activity (plasma GH 15 minutes after GHRP-6): significantly attenuated
GH secretion [4]; GHRP alone, 0.1 μg/kg
  Peak Serum GH x ± SEM: 17.51 ± 1.91 ng/mL
GH secretion [4]; GHRP alone, 0.5 μg/kg
  Peak Serum GH x ± SEM: 41.31 ± 3.97 ng/mL
GH secretion [4]; GHRP alone, 1.0 μg/kg
  Peak Serum GH x ± SEM: 67.88 ± 6.1 ng/mL
GH secretion [4]; GHRP alone, 1.5 μg/kg
  Peak Serum GH x ± SEM: 81.60 ± 5.88 ng/mL
GH secretion [5]; children after radiation of the head (group)
  GHRP:GHRH ratio: < 1
GH secretion [5]; children responding poorly to both secretagogues but better to GHRP (group)
  GHRP:GHRH ratio: > 3
GH secretion [5]; constitutional delay subject, FIG. 4C
  GHRP to GHRH ratio: 3.1
GH secretion [5]; constitutional delay subject, FIG. 4C, GHRP-6 1 μg/kg
  Peak response, serum GH: 13.5 ng/mL
GH secretion [5]
  GH response to sequentially administered secretagogue: responded to neither
GH secretion [5]; irradiated subject, FIG. 4D
  GHRP to GHRH ratio: 0.38
GH secretion [5]; irradiated subject, FIG. 4D, GHRP-6 1 μg/kg
  Peak response, serum GH: 18.9 ng/mL
GH secretion [6]; GHRP 1.0 μg/kg given first
  Peak Serum GH x ± SEM: 69.31 ± 4.21 ng/mL

## GHRH: naturally occurring GH releasing hormone (growth hormone releasing hormone) (YADAIFTNSYRKVLGQLSARKLLQDIMSRQQGESNQERGARARL; ends and bridges not checked; UniProt P01286 32-75, looked up)
GH secretion [4]; GHRH alone, 0.1 μg/kg
  Peak Serum GH x ± SEM: 9.46 ± 3.71 ng/mL
GH secretion [4]; GHRH alone, 0.33 μg/kg
  Peak Serum GH x ± SEM: 16.45 ± 8.11 ng/mL
GH secretion [4]; GHRH alone, 1.0 μg/kg
  Peak Serum GH x ± SEM: 13.54 ± 6.51 ng/mL
GH secretion [4]; GHRH alone, 3.3 μg/kg
  Peak Serum GH x ± SEM: 21.80 ± 6.78 ng/mL
GH secretion [4]; GHRH alone, 10.0 μg/kg
  Peak Serum GH x ± SEM: 17.41 ± 4.67 ng/mL
GH secretion [5]; constitutional delay subject, FIG. 4C, GHRH 1 μg/kg
  Peak response, serum GH: 4.4 ng/mL
GH secretion [5]
  GH response to sequentially administered secretagogue: responded to neither
GH secretion [5]; irradiated subject, FIG. 4D, GHRH 1 μg/kg
  Peak response, serum GH: 49.4 ng/mL
GH secretion [6]; GHRH 1.0 μg/kg preceded by GHRP
  Peak Serum GH x ± SEM: 32.66 ± 3.33 ng/mL
